System: human TAP
Assay: NADH-coupled steady-state ATP hydrolysis (ATPase) assay of purified TAP
Assay type: biochemical
Conditions: 28 °C; for Stimulation of ATP hydrolysis by shortened b27 peptides: TAP 0.5 µM, peptides 20 µM, ATP 3 mM, means of three technical replicates of three biological replicates (n = 9), one-way ANOVA, Fig. 4A
Description: Steady-state ATP hydrolysis activity was measured using a nicotinamide adenine dinucleotide (NADH)-coupled assay. Purified TAP was diluted to a final concentration of 0.5 µM in freshly prepared reaction buffer containing 50 mM HEPES (pH 8.0 with KOH), 150 mM KCl, 2 mM MgCl2, 2 mM DTT, 0.004% (w/v) digitonin, 60 µg mL^−1 pyruvate kinase (Roche), 32 µg mL^−1 lactate dehydrogenase (Roche), 9 mM phosphoenolpyruvate and 150 µM NADH. Peptide substrates were added to a final concentration of 20 µM unless specified otherwise. Then, 30 µL aliquots were dispensed into Corning 384-well Black/Clear Flat Bottom Polystyrene NBS Microplates, and reactions were initiated by the addition of 3 mM ATP. NADH consumption was measured by monitoring the rate of NADH fluorescence depletion at λex = 340 nm and λem = 445 nm at 28 °C using an Infinite M1000 microplate reader (Tecan). Data were converted to ATP turnover with an NADH standard curve. Technical replicates were measured in parallel from the same protein preparation on the same day and biological replicates were measured from different protein preparations from different cells on different days.

Substance: b27″(Q): 7-mer modified b27 peptide lacking the lysine and the adjacent serine (RRYQTEL)
- Stimulation of ATP hydrolysis by shortened b27 peptides: neither of the 7-mer peptides were able to stimulate ATP hydrolysis and not

Substance: RRYSTEL [b27″, 7-mer modified b27 peptide lacking the lysine and the adjacent glutamine]
- Stimulation of ATP hydrolysis by shortened b27 peptides: neither of the 7-mer peptides were able to stimulate ATP hydrolysis and not

Substance: RRYQSTEL [b27′, 8-mer modified b27 peptide lacking the central lysine at position five]
- Stimulation of ATP hydrolysis by shortened b27 peptides: stimulated ATP hydrolysis
- Stimulation of ATP hydrolysis by shortened b27 peptides (listed as B27′): increased the ATPase activity of TAP to a slightly greater extend compared to b27

Substance: b27: 9-mer peptide RRYQKSTEL, well-characterized substrate transported by TAP and presented by HLA-B27 [reference compound]
- ATPase activity as a function of b27 concentration (0.5 µM TAP, 3 mM ATP, pH 8.0, three technical replicates (n = 3), Fig. 1B): stimulated in a dose-dependent manner
